# From PubChem BioAssay (NCI)
#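 Cells were grown in 96-well plates and exposed to each compound for 48 hours at five concentrations; endpoints were interpolated linearly between bracketing concentrations, or set to the highest concentration if not reached. TGI: total growth inhibition.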
# Key:
# Experiment in all cases: NCI tumour cell line growth inhibition, 48 h
# HCT-15 colon = system: HCT-15 colon
# M14 melanoma = system: M14 melanoma
# HCC-2998 colon = system: HCC-2998 colon
# LOX IMVI melanoma = system: LOX IMVI melanoma
# DMS 114 small cell lung = system: DMS 114 small cell lung
# SNB-19 CNS = system: SNB-19 CNS
# IGROV1 ovarian = system: IGROV1 ovarian
# RXF-631 renal = system: RXF-631 renal
# LXFL 529 NSCLC = system: LXFL 529 NSCLC
# MOLT-4 leukemia = system: MOLT-4 leukemia
# NCI-H226 lung = system: NCI-H226 lung
# NCI-H460 lung = system: NCI-H460 lung
# SW-620 colon = system: SW-620 colon
# A498 renal = system: A498 renal
# MALME-3M melanoma = system: MALME-3M melanoma
# CCRF-CEM leukemia = system: CCRF-CEM leukemia
# SF-268 CNS = system: SF-268 CNS
# RXF 393 renal = system: RXF 393 renal
# OVCAR-3 ovarian = system: OVCAR-3 ovarian
# DLD-1 colon = system: DLD-1 colon
# NCI-H23 lung = system: NCI-H23 lung
# HL-60(TB) leukemia = system: HL-60(TB) leukemia
# M19-MEL melanoma = system: M19-MEL melanoma
# COLO 205 colon = system: COLO 205 colon
# HT29 colon = system: HT29 colon
# 786-0 renal = system: 786-0 renal
# RPMI-8226 leukemia = system: RPMI-8226 leukemia
# A549 NSCLC = system: A549 NSCLC
# OVCAR-5 ovarian = system: OVCAR-5 ovarian
# DMS 273 small cell lung = system: DMS 273 small cell lung
# SK-MEL-5 melanoma = system: SK-MEL-5 melanoma
# KM12 colon = system: KM12 colon
# K-562 leukemia = system: K-562 leukemia
# SNB-75 CNS = system: SNB-75 CNS
# HOP-18 NSCLC = system: HOP-18 NSCLC
# SF-295 CNS = system: SF-295 CNS
# SF-539 CNS = system: SF-539 CNS
# SK-MEL-28 melanoma = system: SK-MEL-28 melanoma
# SR leukemia = system: SR leukemia
# TK-10 renal = system: TK-10 renal
# OVCAR-4 ovarian = system: OVCAR-4 ovarian
# OVCAR-8 ovarian = system: OVCAR-8 ovarian
# UACC-62 melanoma = system: UACC-62 melanoma
# SK-OV-3 ovarian = system: SK-OV-3 ovarian
# U251 CNS = system: U251 CNS
# SN12C renal = system: SN12C renal
# SNB-78 CNS = system: SNB-78 CNS
# EKVX NSCLC = system: EKVX NSCLC
# ACHN renal = system: ACHN renal
# UO-31 renal = system: UO-31 renal
# XF 498 CNS = system: XF 498 CNS
smiles,measurement,setting,value
Cn1c2c(c3ccccc31)C1CCCCCCC1C1C(=O)OC(=O)C21 (stereo unspecified),TGI,HCT-15 colon,> 100 µM
same,TGI,M14 melanoma,> 100 µM
same,TGI,HCC-2998 colon,70.3 µM
same,TGI,LOX IMVI melanoma,51.2 µM
same,TGI,DMS 114 small cell lung,75.2 µM
same,TGI,SNB-19 CNS,> 100 µM
same,TGI,IGROV1 ovarian,73.8 µM
same,TGI,RXF-631 renal,> 100 µM
same,TGI,LXFL 529 NSCLC,> 100 µM
same,TGI,MOLT-4 leukemia,65.8 µM
same,TGI,NCI-H226 lung,> 100 µM
same,TGI,NCI-H460 lung,> 100 µM
same,TGI,SW-620 colon,> 100 µM
same,TGI,A498 renal,> 100 µM
same,TGI,MALME-3M melanoma,69 µM
same,TGI,CCRF-CEM leukemia,59 µM
same,TGI,SF-268 CNS,> 100 µM
same,TGI,RXF 393 renal,49 µM
same,TGI,OVCAR-3 ovarian,47.8 µM
same,TGI,DLD-1 colon,> 100 µM
same,TGI,NCI-H23 lung,> 100 µM
same,TGI,HL-60(TB) leukemia,63.1 µM
same,TGI,M19-MEL melanoma,> 100 µM
same,TGI,COLO 205 colon,> 100 µM
same,TGI,HT29 colon,> 100 µM
same,TGI,786-0 renal,> 100 µM
same,TGI,RPMI-8226 leukemia,61.2 µM
same,TGI,A549 NSCLC,> 100 µM
same,TGI,OVCAR-5 ovarian,> 100 µM
same,TGI,DMS 273 small cell lung,42.7 µM
same,TGI,SK-MEL-5 melanoma,> 100 µM
same,TGI,KM12 colon,> 100 µM
same,TGI,K-562 leukemia,75.3 µM
same,TGI,SNB-75 CNS,> 100 µM
same,TGI,HOP-18 NSCLC,> 100 µM
same,TGI,SF-295 CNS,> 100 µM
same,TGI,SF-539 CNS,> 100 µM
same,TGI,SK-MEL-28 melanoma,> 100 µM
same,TGI,SR leukemia,87.4 µM
same,TGI,TK-10 renal,> 100 µM
same,TGI,OVCAR-4 ovarian,> 100 µM
same,TGI,OVCAR-8 ovarian,> 100 µM
same,TGI,UACC-62 melanoma,> 100 µM
same,TGI,SK-OV-3 ovarian,> 100 µM
same,TGI,U251 CNS,> 100 µM
same,TGI,SN12C renal,> 100 µM
same,TGI,SNB-78 CNS,> 100 µM
same,TGI,EKVX NSCLC,> 100 µM
same,TGI,ACHN renal,> 100 µM
same,TGI,UO-31 renal,> 100 µM
same,TGI,XF 498 CNS,93.1 µM
